These results are taken from PMC12455637, “Functionalizing Nisin with a Sugar Moiety Improves Its Solubility and Results in an Altered Antibacterial Spectrum and Mode of Action” (ACS Synthetic Biology, 2025).

Converted amounts (≈) assume the structure as drawn. Square brackets hold non-standard residues; d marks the D form. Primed or numbered codes have the meaning given here. Side chains are listed from the residue outwards. Ends that are not written are not given here. triazole = not defined here; Hpg′ = not defined here

Usually MIC stands for the smallest concentration in the dilution series that meets the test's criterion for growth inhibition. Read a high MIC as weaker potency.

Assay [1] concerns Staphylococcus aureus LMG15975 (MRSA). Type of assay: cell-based. The conditions noted are these: broth microdilution, inoculum ~5 × 10^5 CFU/mL, overnight 37 °C, HPLC-purified peptides. On the procedure: (§1) The minimal inhibitory concentration (MIC) values were assessed through broth microdilution following standard guidelines. The inoculum was adjusted to around 5 × 10^5 CFU/mL. MIC was characterized as the lowest concentration of the antimicrobial substance at which no visible growth was observed following overnight incubation at 37 °C.
For orientation: In broth dilution the organism is exposed to a series of concentrations in liquid medium.

Assay [2] relates to Enterococcus faecium LMG16003 (VRE). Format: cell-based. Particulars: broth microdilution, inoculum ~5 × 10^5 CFU/mL, overnight 37 °C, HPLC-purified peptides. Here is the method:
as §1

Assay [3] concerns E. faecium. Format: cell-based, Enterococcus faecium. Particulars: for decrease in zone of inhibition (activity) on Hpg labeling: 30 μL of 1 mg/mL in 8 mm wells, zone area minus well area, 3 experiments. On the procedure:
2 Production of single-Met containing nisin and nisin variants labeled with Met, Hpg or Hpg–Glc and their antibacterial activity against E. faecium strain. (a) Quantification of fully modified nisin variants labeled with Met or Hpg using HPLC as per Schmitt et al. (b) Evaluation of the antimicrobial efficacy of nisin and its variants against E. faecium through agar well diffusion assay. Each trial was repeated 3 times. The relative activity was determined by measuring inhibition zone diameters in millimeters, calculated as the area of the zone (πr ^2) minus the area of the well (πr ^2) in millimeters.
An overnight culture was added at a concentration of 0.1% (v/v) to molten GM17 agar (for E. faecium and E. faecalis) or LB agar (for S. aureus and B. cereus) at 45 °C, and then 30 mL of this mixture was poured onto a plate. After the agar solidified, wells of 8 mm were created by punching in the agar and filled with 30 μL of a 1 mg/mL lantibiotic solution. If needed, lantibiotics were activated by adding 3 μL of 1 mg/mL NisP directly to the well. The quantity of nisin was determined using HPLC as previously outlined. The agar plate was then incubated at 37 °C overnight, and the zones of inhibition were measured. The presented data results from three independent experiments. Zone diameters were measured in millimeters and recorded as the area of the zone (πr ^2) minus the area of the well (πr ^2) in millimeters.

Assay [4] relates to Bacillus cereus CH-85. The experiment in a line: MIC, broth microdilution. Type of assay: cell-based. The conditions noted are these: inoculum ~5 × 10^5 CFU/mL, overnight 37 °C, HPLC-purified peptides. Here is the method:
as §1

In assay [5] the test system is Listeria monocytogenes LMG10470. The experiment in a line: MIC, broth microdilution. Format: cell-based. Particulars: inoculum ~5 × 10^5 CFU/mL, overnight 37 °C, HPLC-purified peptides. On the procedure:
as §1

For assay [6], the system named is various Gram-positive bacteria. The conditions noted are these: ref citation numbers not given; cited from earlier work. An excerpt:
Recently, we introduced the Met analog Aha at position 17 and used click chemistry to ...

Assay [7] deals with E. faecium. Put plainly: Time-kill assay. Type of assay: cell-based, Enterococcus faecium. The conditions noted are these: 5-fold MIC against E. faecium. On the procedure: The antimicrobial effectiveness of nisin, nisin(1–22), and nisin(M21V)–Gal was assessed using a method previously described by Guo et al. , In summary, an overnight culture of E. faecium was diluted 50 times in GM17 medium and cultured at 37 °C. The bacteria were grown until reaching an optical density at 600 nm (OD600) of 0.5, and then the cell concentration was adjusted to 5 × 10^5 colony-forming units per milliliter (CFU/mL). Following this, the bacteria were exposed to a 5-fold MIC of each peptide. An untreated cell suspension was used as a control. At specific time intervals, 50 μL samples were taken, and both undiluted and 10-fold serially diluted suspensions were plated on GM17 agar. The plates were then incubated overnight at 37 °C, and the resulting colonies were counted and expressed as CFU/mL. Each experiment was conducted in triplicate.

Where [8] appears, read: compared to the same peptide labeled with Met.

As to `C#CCC[C@H](NC(=O)[C@H](CC(N)=O)NC(=O)[C@@H]1CS[C@@H](C)[C@@H](NC(=O)[C@H](CCCCN)NC(=O)[C@@H]2CS[C@@H](C)[C@@H](NC(=O)[C@@H]3CSC[C@@H](NC(=O)/C(=C/C)NC(=O)[C@@H](N)[C@@H](C)CC)C(=O)N[C@@H]([C@@H](C)CC)C(=O)NC(=C)C(=O)N[C@@H](CC(C)C)C(=O)N3)C(=O)N3CCC[C@H]3C(=O)NCC(=O)N2)C(=O)NCC(=O)N[C@@H](C)C(=O)N[C@@H](CC(C)C)C(=O)N[C@@H]([C@@H](C)CC)C(=O)NCC(=O)N1)C(=O)N[C@@H](CCCCN)C(=O)N[C@H]1C(=O)N[C@@H](C)C(=O)N[C@H]2C(=O)N[C@@H](CS[C@H]1C)C(=O)N[C@@H](Cc1c[nH]cn1)C(=O)N[C@H](C(=O)N[C@@H](CO)C(=O)N[C@H](C(=O)N[C@@H](Cc1c[nH]cn1)C(=O)N[C@H](C(=O)NC(=C)C(=O)N[C@@H](CCCCN)C(=O)O)C(C)C)[C@@H](C)CC)CS[C@H]2C` [nisin(M17I)(Hpg)], the MIC turned out to be 30.4 µg/mL (≈ 9.17 µM) in assay [1], 15.2 µg/mL (≈ 4.59 µM) in assay [2], 121.5 µg/mL (≈ 36.7 µM) in assay [4] and 121.5 µg/mL (≈ 36.7 µM) in assay [5]. Also, the “decrease in zone of inhibition (activity) on Hpg labeling” value (shortened to “decrease in zone of inhibition”) in assay [3] (setting [8]) turned out to be 30%.
For `C#CCC[C@@H]1NC(=O)[C@H](CC(C)C)NC(=O)[C@H](C)NC(=O)CNC(=O)[C@H](NC(=O)[C@H](CCCCN)NC(=O)[C@@H]2CS[C@@H](C)[C@@H](NC(=O)[C@@H]3CSC[C@@H](NC(=O)/C(=C/C)NC(=O)[C@@H](N)[C@@H](C)CC)C(=O)N[C@@H]([C@@H](C)CC)C(=O)NC(=C)C(=O)N[C@@H](CC(C)C)C(=O)N3)C(=O)N3CCC[C@H]3C(=O)NCC(=O)N2)[C@H](C)SC[C@@H](C(=O)N[C@@H](CC(N)=O)C(=O)N[C@H](C(=O)N[C@@H](CCCCN)C(=O)N[C@H]2C(=O)N[C@@H](C)C(=O)N[C@H]3C(=O)N[C@@H](CS[C@H]2C)C(=O)N[C@@H](Cc2c[nH]cn2)C(=O)N[C@H](C(=O)N[C@@H](CO)C(=O)N[C@H](C(=O)N[C@@H](Cc2c[nH]cn2)C(=O)N[C@H](C(=O)NC(=C)C(=O)N[C@@H](CCCCN)C(=O)O)C(C)C)[C@@H](C)CC)CS[C@H]3C)C(C)C)NC(=O)CNC1=O` [nisin(M21V)(Hpg)], the MIC in assay [1] worked out at 15.2 µg/mL (≈ 4.61 µM); in assay [2] it was 7.6 µg/mL (≈ 2.3 µM); in assay [4], 30.4 µg/mL (≈ 9.21 µM); in assay [5] it was 30.4 µg/mL (≈ 9.21 µM). In addition, the “decrease in zone of inhibition” value in assay [3] (setting [8]) is given as 17%.
Take `C#CCC[C@H](NC(=O)[C@@H]1CS[C@@H](C)[C@@H](NC(=O)[C@@H](NC(=O)[C@@H]2CS[C@@H](C)[C@@H](NC(=O)[C@@H]3CSC[C@@H](NC(=O)/C(=C/C)NC(=O)[C@@H](N)[C@@H](C)CC)C(=O)N[C@@H]([C@@H](C)CC)C(=O)NC(=C)C(=O)N[C@@H](CC(C)C)C(=O)N3)C(=O)N[C@@H](C)C(=O)NCC(=O)N2)[C@@H](C)CC)C(=O)NCC(=O)N[C@@H](C(C)C)C(=O)N[C@@H]([C@@H](C)CC)C(=O)N[C@@H]([C@@H](C)CC)C(=O)N/C(=C\C)C(=O)N1)C(=O)N[C@@H]1CSC[C@@H](C(=O)N[C@@H](CCCCN)C(=O)O)NC(=O)CNC(=O)[C@H](CC(N)=O)NC1=O` [rombocin(M17I)(Hpg)]: the “decrease in zone of inhibition” value in assay [3] (setting [8]) stood at 49%.
Same read-out and setting: the result for `C#CCC[C@@H]1NC(=O)[C@H]([C@@H](C)CC)NC(=O)[C@H](C(C)C)NC(=O)CNC(=O)[C@H](NC(=O)[C@@H](NC(=O)[C@@H]2CS[C@@H](C)[C@@H](NC(=O)[C@@H]3CSC[C@@H](NC(=O)/C(=C/C)NC(=O)[C@@H](N)[C@@H](C)CC)C(=O)N[C@@H]([C@@H](C)CC)C(=O)NC(=C)C(=O)N[C@@H](CC(C)C)C(=O)N3)C(=O)N[C@@H](C)C(=O)NCC(=O)N2)[C@@H](C)CC)[C@H](C)SC[C@@H](C(=O)N[C@H](C(=O)N[C@@H]2CSC[C@@H](C(=O)N[C@@H](CCCCN)C(=O)O)NC(=O)CNC(=O)[C@H](CC(N)=O)NC2=O)C(C)C)NC(=O)/C(=C/C)NC1=O` [rombocin(M20V)(Hpg)] reads 13%.
“M17W: literature nisin mutant with M17W mutation (ITSISLCTPGCKTGALWGCNMKTATCHCSIHVSK; cysteine pairing not given here; also: lantibiotic nisin-A; UniProt P13068 24-57, looked up, variant M17W) [reference compound]”: the “influence of M17 mutation on antimicrobial activity” value in assay [6] is recorded as “reduced activity”.
For the compound “nisin(1–22): truncated variant of nisin, bacteriostatic control that only binds lipid II (ITSISLCTPGCKTGALMGCNMK; cysteine pairing not given here; also: lantibiotic nisin-A; UniProt P13068 24-45, looked up, fragment) [reference compound]”, in assay [7], the “bacteriostatic or bactericidal nature” value is recorded as “bacteriostatic effect”.
As for “nisin(M17I): single-Met nisin mutant M17I, labeled with Met (ITSISLCTPGCKTGALIGCNMKTATCHCSIHVSK; not fully specified (some residues, bridges); cysteine pairing not given here; also: lantibiotic nisin-A, labeled with Met; UniProt P13068 24-57, looked up, variant M17I)”, the “influence of M17 mutation on antimicrobial activity” value in assay [6] was “reduced activity”.
As for “nisin(M17I)–Glc (ITSISLCTPGCKTGALIGCN[Hpg′]([triazole-2‑deoxy‑D‑glucose])KTATCHCSIHVSK; not fully specified (some residues, bridges); reading uncertain; also: nisin-A lantibiotic thioether rings and dehydro residues, not placed; UniProt P13068 24-57, looked up, variant M17I)”, the “decrease of activity after glucose attachment” value in assay [3] (compared to the Hpg-labeled peptide, agar well diffusion) was determined as 15%. Moreover, the “decrease of activity of the glucose conjugate” value in assay [3] (compared to the same peptide labeled with Met, agar well diffusion) was determined as 41%.
For “nisin(M21V): single-Met nisin mutant M21V, labeled with Met (ITSISLCTPGCKTGALMGCNVKTATCHCSIHVSK; not fully specified (some residues, bridges); cysteine pairing not given here; also: lantibiotic nisin-A, labeled with Met; UniProt P13068 24-57, looked up, variant M21V)”, the “antibacterial activity in words” value in assay [3] (agar well diffusion, 30 μL of 1 mg/mL) is “highest antibacterial activity”.
